Reference: US5668165A, “Small molecule inhibition of RNA/ligand binding” (Scriptgen Pharmaceuticals, Inc., priority 1995, dated 1997)
Entries after “also recorded” stand apart in the source; their conditions may differ. Like-named read-outs stand apart in the source and are kept apart here. Starred links: 1 amine or outer side, 2 acyl side, 3 side chain; linkers in the order of their positions; H or OH if unused. Positions of bridges follow the written chain, without caps; N, C: chain ends. Non-standard residues stand in square brackets, D forms with d. Residues, ends and D or L forms follow the SMILES beside them. *: point of attachment. X1 = NC1=N[C@@H]([C@H](N[*:1])C(=O)[*:2])C[C@H](O)N1; ΔAla(Z-3-ureido) = NC(=O)N/C=C(\N)C(=O)O; β3hOrn = NCCC[C@H](N)CC(=O)*; Dap = NC[C@H](N)C(=O)O

Key:
[1] = biological target: T1, binding of HIV Rev protein to the HIV RRE (Human immunodeficiency virus type 1 group M subtype B, UniProt P04618); assay: Rev-RRE nitrocellulose filter-binding assay
T1 construct: made in house; host or cells: E. coli
T1 sequence (P04618 whole entry, looked up): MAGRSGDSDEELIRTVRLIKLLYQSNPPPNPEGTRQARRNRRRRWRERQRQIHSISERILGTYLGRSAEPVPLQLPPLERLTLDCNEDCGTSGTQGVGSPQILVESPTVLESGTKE
Procedure: A 69-nt ^32 P-labelled RNA probe containing a high affinity Rev-binding site (Bartel et al., Cell 67:529, 1991 ) was incubated with purified E. coli-derived Rev protein in the absence and presence of increasing concentrations of Compound 15. Reactions conditions were those that maximize the specificity of the interaction between Rev and the RRE, i.e., 150 mM KCl and a 100-fold molar excess of tRNA.
After a 30-minute incubation at room temperature, a nitrocellulose filter-binding assay was performed to quantify the binding of Rev to the RRE (Daly et al., Biochem. 32:10497, 1993). In this assay, RNA is retained on the filter only by virtue of binding to Rev. Filter-associated radioactivity was quantified in a Wallac Microbeta counter. The fraction of input RNA retained on the filter was plotted as a function of Compound 15 concentration, and the IC50 (the concentration required to inhibit 50% Rev-RRE binding) was determined by linear regression.

[2] = system: binding of Rev to the RRE (67-nt RNA probe containing a high affinity Rev-binding site); design: species or system HIV; details: for ability to inhibit Rev binding (inhibitory at any concentration tested): 67-nt 32P-labeled RNA probe, gel mobility shift; for concentration at which inhibitory to Rev binding: third group of aminoglycosides; for inhibiting the binding of Rev to the RRE: Rev/RRE binding inhibition assay, summary of thirteen 2-DOS aminoglycosides
Procedure: To test whether antibiotics can block binding of Rev to the RRE, a 67-nt ^32 P-labeled RNA probe containing a high affinity Rev-binding site was incubated with purified E. coli derived Rev protein in the presence of various antibiotics. Binding of Rev to the RNA probe was quanitified by an RNA gel mobility shift assay.

[3] = Table 2, 2,5-Bis(3-amidinophenyl)furans, read-out: IC50 against Rev/RRE binding
[4] = Table 3, 2,5-Bis(3-bisamidinophenyl)thiophene, read-out: IC50 against Rev/RRE binding
[5] = Table 3, 2,5-Bis(3-bisamidinophenyl)thiophene

## CN(C)CCCCNC(=N)c1cccc(-c2ccc(-c3cccc(C(=N)NCCCCN(C)C)c3)o2)c1 [Example 17, 2,5-Bis[3-(4-N,N-dimethylaminobutyl-amidino)phenyl]furan]
[1]; [3]
  IC50: 1700 nM

## CN1CCCC1CCNC(=N)c1cccc(-c2ccc(-c3cccc(C(=N)NCCC4CCCN4C)c3)s2)c1 (stereo not drawn) [Example 21, 2,5-Bis{3-[2-(1-methyl-2-pyrrolidinyl)ethylamidino]phenyl}thiophene]
[1]; [4]
  IC50: 2400 nM

## CCC[C@@H]1C[C@@H](C(=O)N[C@@H]([C@H]2O[C@H](SC)[C@H](O)[C@@H](O)[C@H]2O)[C@H](C)Cl)N(C)C1 [clindamycin A]
[2]
  ability to inhibit Rev binding (inhibitory at any concentration tested): no

## CN(C)[C@@H]1C(=O)C(C(N)=O)=C(O)[C@@]2(O)C(=O)C3=C(O)c4c(O)cccc4[C@@](C)(O)[C@H]3C[C@@H]12 [tetracycline]
[2]
  ability to inhibit Rev binding (inhibitory at any concentration tested): no

## Cn1cc(NC(=O)c2cc(NC(=O)c3cc(NC=O)cn3C)cn2C)cc1C(=O)NCCC(=N)N [distamycin A]
[2]
  ability to inhibit Rev binding (inhibitory at any concentration tested): no

## NC[C@H]1O[C@H](O[C@H]2[C@H](O)[C@@H](O[C@H]3O[C@H](CO)[C@@H](O)[C@H](N)[C@H]3O)[C@H](N)C[C@@H]2N)[C@H](N)[C@@H](O)[C@@H]1O [kanamycin B]
[2]; 67-nt RNA probe
  concentration at which inhibitory to Rev binding: 100 μm
[2]
  inhibiting the binding of Rev to the RRE: effective

## c1cc(C2=NCCN2)cc(-c2ccc(-c3cccc(C4=NCCN4)c3)o2)c1 [Example 19, 2,5-Bis(3-imidazolinophenyl)furan]
[1]; [3]
  IC50: 4000 nM

## NC[C@H]1O[C@H](O[C@H]2[C@H](O)[C@@H](O)[C@H](N)C[C@@H]2N)[C@H](N)[C@@H](O)[C@@H]1O [neamine]
[2]; 67-nt RNA probe
  concentration at which inhibitory to Rev binding: 100 μm
[2]
  inhibiting the binding of Rev to the RRE: effective

## NC[C@@H]1O[C@H](O[C@H]2[C@@H](O)[C@H](O[C@@H]3[C@@H](O)[C@H](N)C[C@H](N)[C@H]3O[C@H]3O[C@H](CO)[C@@H](O)[C@H](O)[C@H]3N)O[C@@H]2CO)[C@H](N)[C@@H](O)[C@@H]1O [paromomycin]
[2]
  ability to inhibit Rev binding (inhibitory at any concentration tested): no inhibitory activity at any concentration tested; also recorded: completely inactive

## CN(C)CCCNC(=N)c1cccc(-c2ccc(-c3cccc(C(=N)NCCCN(C)C)c3)o2)c1 [Example 15, 2,5-Bis [3-(3-N,N-dimethylaminopropylamidino)phenyl]furan]
[1]; FIG. 2, 150 mM KCl, 100-fold molar excess of tRNA, read-out: IC50 (concentration required to inhibit 50% Rev-RRE binding)
  IC50: 1000 nM

## CCC[C@@H]1C[C@@H](C(=O)N[C@@H]([C@H]2O[C@H](SC)[C@H](O)[C@@H](O)[C@H]2O)[C@@H](C)O)N(C)C1 [lincomycin]
[2]
  ability to inhibit Rev binding (inhibitory at any concentration tested): no

## capreomycin
[2]
  ability to inhibit Rev binding (inhibitory at any concentration tested): no

## CCN(CC)CCCNC(=N)c1cccc(-c2ccc(-c3cccc(C(=N)NCCCN(CC)CC)c3)s2)c1 [Example 22, 2,5-Bis-[3-(3-N,N-diethylaminopropyl-amidino)phenyl]thiophene]
[1]; [4]
  IC50: 2800 nM

## butirosin
[2]
  ability to inhibit Rev binding (inhibitory at any concentration tested): no inhibitory activity at any concentration tested

## N=C(NCCN1CCCC1)c1cccc(-c2ccc(-c3cccc(C(=N)NCCN4CCCC4)c3)s2)c1 [Example 23, 2,5-Bis[3-(2-pyrrolidinoethylamidino)phenyl]thiophene]
[1]; [5]
  IC50 against Rev/RRE binding: not active

## CC1CCCCN1CCCNC(=N)c1cccc(-c2ccc(-c3cccc(C(=N)NCCCN4CCCCC4C)c3)s2)c1 (stereo not drawn) [Example 25, 2,5-Bis{3-[3-(2-methylpiperidino)-propylamidino]phenyl}thiophene]
[1]; [4]
  IC50: 4000 nM

## tunicamycin
[2]
  ability to inhibit Rev binding (inhibitory at any concentration tested): no

## NCCC[C@H](N)CC(=O)N[C@H]1CNC(=O)[C@H]([C@H]2C[C@H](O)NC(N)=N2)NC(=O)/C(=C/NC(N)=O)NC(=O)[C@H](CO)NC(=O)[C@H](CO)NC1=O [viomycin] (β3hOrn-[Dap]SS[ΔAla(Z-3-ureido)][X1]; lactam 1-C)
[2]
  ability to inhibit Rev binding (inhibitory at any concentration tested): no

## O=C(N[C@H](CO)[C@H](O)c1ccc([N+](=O)[O-])cc1)C(Cl)Cl [chloramphenicol]
[2]
  ability to inhibit Rev binding (inhibitory at any concentration tested): no

## CN[C@H]1C[C@@H](N)[C@H](O)[C@@H](O[C@@H]2O[C@H](CO)[C@H](O)[C@@H]3OC4(O[C@H]23)O[C@H]([C@@H](N)CO)[C@H](O)[C@H](O)[C@H]4O)[C@@H]1O (stereo partly drawn) [hygromyoin B, hygromycin B]
[2]
  ability to inhibit Rev binding (inhibitory at any concentration tested): no inhibitory activity at any concentration tested

## CN[C@@H]1[C@H](O[C@H]2[C@H](O[C@H]3[C@H](O)[C@@H](O)[C@H](NC(=N)N)[C@@H](O)[C@@H]3NC(=N)N)O[C@@H](C)[C@]2(O)CO)O[C@@H](CO)[C@H](O)[C@H]1O [dihydrostreptomycin]
[2]
  ability to inhibit Rev binding (inhibitory at any concentration tested): no inhibitory activity at any concentration tested

## C[C@H]1O[C@H](O[C@H]2[C@H](O)[C@@H](O)[C@@H](O)[C@H](O)[C@@H]2O)[C@@H](N)C[C@@H]1NC(=N)C(=O)O [kasugamycin]
[2]
  ability to inhibit Rev binding (inhibitory at any concentration tested): no inhibitory activity at any concentration tested

## NCC[C@H](O)C(=O)N[C@@H]1C[C@H](N)[C@@H](O[C@H]2O[C@H](CN)[C@@H](O)[C@H](O)[C@H]2O)[C@H](O)[C@H]1O[C@H]1O[C@H](CO)[C@@H](O)[C@H](N)[C@H]1O [amikacin]
[2]; 67-nt RNA probe
  concentration at which inhibitory to Rev binding: 100 μm
[2]
  inhibiting the binding of Rev to the RRE: effective

## N=C(NN1CCOCC1)c1cccc(-c2ccc(-c3cccc(C(=N)NN4CCOCC4)c3)s2)c1 [Example 24, 2,5-Bis[3-(4-morpholinoamidino)phenyl]thiophene]
[1]; [5]
  IC50 against Rev/RRE binding: not active

## CN(C)CCCCCCNC(=N)c1cccc(-c2ccc(-c3cccc(C(=N)NCCCCCCN(C)C)c3)o2)c1 [Example 18, 2,5-Bis[3-(6-N,N-dimethylaminohexylamidino)phenyl]furan]
[1]; [3]
  IC50: 3900 nM

## olivomycin
[2]
  ability to inhibit Rev binding (inhibitory at any concentration tested): no

## NC[C@@H]1O[C@H](O[C@H]2[C@@H](O)[C@H](O[C@@H]3[C@@H](O)[C@H](N)C[C@H](N)[C@H]3O[C@H]3O[C@H](CO)[C@@H](O)C[C@H]3N)O[C@@H]2CO)[C@H](N)[C@@H](O)[C@@H]1O[C@H]1O[C@H](CO)[C@@H](O)[C@H](O)[C@@H]1O [lividomycin A]
[2]
  ability to inhibit Rev binding (inhibitory at any concentration tested): significant inhibitory ability
  inhibiting the binding of Rev to the RRE: exceptional inhibitory potential
[2]; 67-nt RNA probe, neomycin B: complete inhibition
  concentration that achieves inhibition of Rev binding: 10 µM

## thiostreption
[2]
  ability to inhibit Rev binding (inhibitory at any concentration tested): no

## chromomycin A
[2]
  ability to inhibit Rev binding (inhibitory at any concentration tested): no

## NC[C@H]1O[C@H](O[C@H]2[C@H](O[C@@H]3O[C@H](CO)[C@@H](O)[C@H]3O)[C@@H](O)[C@H](N)C[C@@H]2N)[C@H](N)[C@@H](O)[C@@H]1O [ribostamycin]
[2]; 67-nt RNA probe
  concentration at which inhibitory to Rev binding: 100 μm
[2]
  inhibiting the binding of Rev to the RRE: effective

## vineomycin
[2]
  ability to inhibit Rev binding (inhibitory at any concentration tested): no

## CN[C@@H]1[C@@H](O)[C@@H](O[C@@H]2[C@@H](O)[C@H](O[C@H]3OC(CN)=CC[C@H]3N)[C@@H](N)C[C@H]2N)OC[C@]1(C)O [sisomicin]
[2]; 67-nt RNA probe
  concentration at which inhibitory to Rev binding: 100 μm
[2]
  inhibiting the binding of Rev to the RRE: effective

## CC1(C)S[C@@H]2[C@H](NC(=O)C(C(=O)O)c3ccccc3)C(=O)N2[C@H]1C(=O)O (stereo partly drawn) [carbenicilin]
[2]
  ability to inhibit Rev binding (inhibitory at any concentration tested): no

## CN[C@@H]1[C@H](O)[C@H](NC)[C@H]2O[C@@]3(O)C(=O)C[C@@H](C)O[C@H]3O[C@@H]2[C@H]1O [specitinomycin]
[2]
  ability to inhibit Rev binding (inhibitory at any concentration tested): no inhibitory activity at any concentration tested
[2]; listed as spectinoymycin
  ability to inhibit Rev binding (inhibitory at any concentration tested): inactive

## CC1(C)S[C@@H]2[C@H](NC(=O)[C@H](N)c3ccccc3)C(=O)N2[C@H]1C(=O)O [ampicilin]
[2]
  ability to inhibit Rev binding (inhibitory at any concentration tested): no

## CC[C@H]1OC(=O)[C@H](C)[C@@H](O[C@H]2C[C@@](C)(OC)[C@@H](O)[C@H](C)O2)[C@H](C)[C@@H](O[C@@H]2O[C@H](C)C[C@H](N(C)C)[C@H]2O)[C@](C)(O)C[C@@H](C)C(=O)[C@H](C)[C@@H](O)[C@]1(C)O [erythromycin]
[2]
  ability to inhibit Rev binding (inhibitory at any concentration tested): no

## [H]/N=C(/N)N[C@H]1[C@H](O)[C@@H](O)[C@H](O[C@@H]2O[C@@H](C)[C@](O)(C=O)[C@H]2O[C@@H]2O[C@@H](CO)[C@H](O)[C@@H](O)[C@@H]2NC)[C@@H](N/C(N)=N\[H])[C@@H]1O [stretomycin, streptomycin]
[2]
  ability to inhibit Rev binding (inhibitory at any concentration tested): no inhibitory activity at any concentration tested
[2]; listed as streptomycin
  ability to inhibit Rev binding (inhibitory at any concentration tested): inactive

## gentamicin C
[2]; 67-nt RNA probe
  concentration at which inhibitory to Rev binding: 100 μm
[2]
  inhibiting the binding of Rev to the RRE: effective
